These results are taken from US10849907B2, “Imidazopyridine derivatives and the use thereof as medicament” (Boehringer Ingelheim International GmbH, priority 2017, dated 2020).

Molecules are shown by their SMILES.

A short description of data set [1]: Metabolic stability in pooled human liver microsomes. Conditions: pH 7.6; pooled human liver microsomes 1 mg/mL, 1 μM compound, 37° C., NADPH; read-out: Half-life - t½ human liver microsomes. The class given is in vitro ADME. An excerpt:
Stability in human liver microsomes refers to the susceptibility of compounds to biotransformation in the context of selecting and/or designing drugs with favorable pharmacokinetic properties. The primary site of metabolism for many drugs is the liver. Human liver microsomes contain the cytochrome P450s (CYPs), and thus represent a model system for studying drug metabolization in vitro. Enhanced stability in human liver microsomes is associated with several advantages, including increased bioavailability and adequate half-life, which can enable lower and less frequent dosing of patients. Thus, enhanced stability in human liver microsomes is a favorable characteristic for compounds that are to be used for drugs.
The metabolic degradation of the test compound was assayed at 37° C. with pooled human liver microsomes. The final incubation volume of 60 μl per time point contains TRIS buffer pH 7.6 at room temperature (0.1 M), magnesium chloride (5 mM aqueous solution), microsomal protein (1 mg/mL for human) and the test compound at a final concentration of 1 μM. Following a short preincubation period at 37° C., the reactions were initiated by addition of betanicotinamide adenine dinucleotide phosphate, reduced form (NADPH, 1 mM), and terminated by transferring an aliquot into solvent after different time points. After centrifugation (10000 g, 5 min), an aliquot of the supernatant was assayed by LC-MS/MS for the amount of parent compound. The half-life was determined by the slope of the semi-logarithmic plot of the concentration-time profile.

The target in data set [2] is T1, NMDA NR1/NR2B receptor (Homo sapiens, UniProt Q05586+Q13224).
T1 construct: host or cells: HEK293, tetracycline-inducible expression
T1 sequence (Q13224 27-1484, other chains not shown): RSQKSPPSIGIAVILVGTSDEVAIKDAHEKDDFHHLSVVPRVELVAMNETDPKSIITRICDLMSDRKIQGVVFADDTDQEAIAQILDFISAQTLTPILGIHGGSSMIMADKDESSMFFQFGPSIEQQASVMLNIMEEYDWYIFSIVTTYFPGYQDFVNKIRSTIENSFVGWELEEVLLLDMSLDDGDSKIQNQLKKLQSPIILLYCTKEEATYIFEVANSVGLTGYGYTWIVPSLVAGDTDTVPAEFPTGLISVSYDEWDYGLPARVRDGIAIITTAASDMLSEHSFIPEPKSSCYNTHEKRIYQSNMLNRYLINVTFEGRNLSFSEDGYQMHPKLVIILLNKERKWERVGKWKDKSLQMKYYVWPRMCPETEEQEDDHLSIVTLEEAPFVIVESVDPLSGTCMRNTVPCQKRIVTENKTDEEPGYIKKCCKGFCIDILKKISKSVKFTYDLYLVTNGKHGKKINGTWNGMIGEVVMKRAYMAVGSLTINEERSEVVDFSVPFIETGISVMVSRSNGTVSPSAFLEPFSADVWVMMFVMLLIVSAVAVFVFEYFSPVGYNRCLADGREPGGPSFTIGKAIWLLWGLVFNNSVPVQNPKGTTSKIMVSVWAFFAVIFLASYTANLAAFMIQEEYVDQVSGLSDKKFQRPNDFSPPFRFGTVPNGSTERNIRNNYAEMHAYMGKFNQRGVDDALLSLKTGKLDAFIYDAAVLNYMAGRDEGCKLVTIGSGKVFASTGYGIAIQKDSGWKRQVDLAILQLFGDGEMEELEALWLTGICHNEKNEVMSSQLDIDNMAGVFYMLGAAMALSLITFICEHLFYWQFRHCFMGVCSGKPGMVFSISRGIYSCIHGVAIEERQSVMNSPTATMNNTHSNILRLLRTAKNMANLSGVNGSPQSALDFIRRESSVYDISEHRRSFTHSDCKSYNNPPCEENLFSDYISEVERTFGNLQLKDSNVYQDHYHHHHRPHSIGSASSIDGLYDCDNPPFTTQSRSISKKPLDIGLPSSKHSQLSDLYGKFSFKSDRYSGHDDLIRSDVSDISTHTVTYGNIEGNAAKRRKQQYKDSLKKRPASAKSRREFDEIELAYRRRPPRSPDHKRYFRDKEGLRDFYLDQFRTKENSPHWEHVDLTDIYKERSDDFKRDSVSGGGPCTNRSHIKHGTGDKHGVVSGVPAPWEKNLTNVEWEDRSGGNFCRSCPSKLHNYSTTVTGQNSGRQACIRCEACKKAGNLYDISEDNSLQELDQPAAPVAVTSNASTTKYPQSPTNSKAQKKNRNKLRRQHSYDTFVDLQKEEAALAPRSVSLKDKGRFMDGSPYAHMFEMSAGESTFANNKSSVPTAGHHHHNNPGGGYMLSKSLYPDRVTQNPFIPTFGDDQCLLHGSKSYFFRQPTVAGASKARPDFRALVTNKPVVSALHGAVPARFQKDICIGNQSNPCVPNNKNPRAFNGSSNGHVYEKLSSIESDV
The data set can be described thus: In vitro NMDA NR1/NR2b cell assay (FLIPR, intracellular calcium induced by glycine/glutamate). The class given is cell-based. Conditions: HEK293 cells expressing NMDA NR1/NR2B, 20 μM glycine, 1 μM glutamate, compounds of the invention (Table 1). Here is the method: A human HEK293 cell line with tetracyclin-inducible expression of NMDA NR1/NR2B receptor was used as a test system for compound efficacy and potency. The cell line was purchased from ChanTest, Catalog # CT6121. Compound activity was determined by measuring the effect of compounds on intracellular calcium concentration induced by glycine/glutamate agonism in a FLIPRtetra system (Molecular Devices).
The cells were obtained as frozen cells in cryo-vials and stored until use at −150° C. Cells were grown in culture medium (DMEM/F12, 10% FBS, 5 μg/mL Blasticidin, 150 μg/mL Zeozin, 500 μg/mL Geneticin). […] For sub-culturing the cells were detached from flasks by Versene. For the assay, cells were detached, washed twice with induction medium (DMEM/F12 without glutamine, 10% FBS, 2 μg/mL Tetracycline, 2 mM Ketamine) and seeded to 384 well pure coat amine plates (BD 359324, 50000 cells per well in 50 μl) 48 h prior to assay in induction medium.
The test compounds were dissolved in 100% DMSO at a concentration of 10 mM and in a first step diluted in DMSO to a concentration of 5 mM, followed by serial dilution steps in 100% DMSO. Dilution factor and number of dilution steps may vary according to needs. Typically 8 different concentrations by 1:5 dilutions were prepared in duplicate, further intermediate dilutions (1:37.5) of the substances were carried out with aqueous assay buffer (137 mM NaCl, 4 mM KCl, 1.8 mM CaCl, 10 mM HEPES, 10 mM Glucose, pH 7.4) resulting in a compound concentration 3 times above the final test concentration and DMSO at 2.7% resulting in 0.9% final DMSO concentration in the assay.
At the assay day cells were washed 3× with assay puffer, 10 μL buffer remained in the wells after washing. 10 μL Ca kit loading buffer (AAT Bioquest) was added to the cells and the plates were incubated with lid for 60 minutes at r.t. 20 μl assay buffer containing 60 μM glycine (20 μM final) and 3 μM glutamate (1 μM final) was added to column 1-23. Fluorescence (indicating the calcium influx as a result of the NR1/NR2B ion channel activation) was read on the FLIPRtetra device for 60 seconds to monitor the glutamate induced effects. After 2 minutes 20 μL of compound or controls (row 1-22) in assay buffer were carefully added to the wells. […] The average of 2 measurements at 5 minutes and 5 min 10 seconds after compound addition is calculated and further used for IC50 calculations. Each assay microtiter plate contained wells (in column 23 or 24) with DMSO controls instead of compound as controls for glycine/glutamate induced fluorescence (high controls) and wells with 1 μM of a reference NR2b NAM as low controls (Compound 22; reference: Layton, Mark E et al, ACS Chemical Neuroscience 2011, 2(7), 352-362).
The output file of the reader contains the well number and measured average fluorescence units. For data evaluation and calculation, the measurement of the low control was set as 0% control and the measurement of the high control was set as 100% control. The IC50 values were calculated using the standard 4 parameter logistic regression formula. Calculation: [y=(a−d)/(1+(x/c)^b)+d], a=low value, d=high value; x=conc M; c=IC50 M; b=slope.

Consider `O=C(OCc1cccc(F)c1)N1CCO[C@H](c2nc3cccnc3[nH]2)C1` [Example 1], for which, in data set [1], the half-life at 1 µM was 38 min. For the same compound, the IC50 in data set [2] was determined as 409 nM.
Take `O=C(OCc1ccc(F)cc1)N1CCO[C@H](c2nc3cccnc3[nH]2)C1` [Example 2]: the half-life at 1 µM in data set [1] turned out to be 76 min. For the same compound, the 50% inhibitory concentration (IC50) in data set [2] amounted to 83 nM.
As to `Cc1ccccc1COC(=O)N1CCO[C@H](c2nc3cccnc3[nH]2)C1` [Example 8], in data set [1], the half-life at 1 µM came to 14 min. Besides, in data set [2], the IC50 was 404 nM.
On the same counts, the results for `Cc1cccc(F)c1COC(=O)N1CCO[C@H](c2nc3cccnc3[nH]2)C1` [Example 10] are 12 min and 156 nM.
The like results for `Cc1ccc(COC(=O)N2CCO[C@H](c3nc4cccnc4[nH]3)C2)c(F)c1` [Example 11] were, in that order, 24 min and 55 nM.
The like results for `Cc1ccc(COC(=O)N2CCO[C@H](c3nc4cccnc4[nH]3)C2)cc1F` [Example 12] were, in that order, 36 min and 73 nM.
For the compound `O=C(OCc1ccc(F)cc1Cl)N1CCO[C@H](c2nc3cccnc3[nH]2)C1` [Example 13], in data set [1], the half-life at 1 µM amounted to 37 min. In addition, the 50% inhibitory concentration (IC50) in data set [2] was determined as 122 nM.
On the same counts, the results for `O=C(OCc1ccccc1Cl)N1CCO[C@H](c2nc3cccnc3[nH]2)C1` [Example 14] are 27 min and 121 nM.
On the same counts, the results for `O=C(OCc1cccc(F)c1F)N1CCO[C@H](c2nc3cccnc3[nH]2)C1` [Example 15] are 86 min and 93 nM.
The like results for `O=C(OCc1c(F)cccc1F)N1CCO[C@H](c2nc3cccnc3[nH]2)C1` [Example 16] were, in that order, above 130 min and 104 nM.
Consider `O=C(OCc1ccccc1)N1CCO[C@H](c2nc3cccnc3[nH]2)C1` [Example 17], for which the half-life at 1 µM in data set [1] was above 130 min. The IC50 in data set [2] came out at 76 nM.
On the same counts, the results for `Cc1ccc(COC(=O)N2CCO[C@H](c3nc4cccnc4[nH]3)C2)cc1` [Example 18] are 51 min and 54 nM.
On the same counts, the results for `O=C(OCc1ccc(F)cc1F)N1CCO[C@H](c2nc3cccnc3[nH]2)C1` [Example 19] are 130 min and 128 nM.
In the case of `O=C(OCc1ccc(C(F)F)cc1)N1CCO[C@H](c2nc3cccnc3[nH]2)C1` [Example 26], the half-life at 1 µM in data set [1] was above 130 min. For the same compound, in data set [2], the half-inhibitory concentration (IC50) worked out at 78 nM.
The like results for `O=C(OCc1ccccc1F)N1CCO[C@H](c2nc3cccnc3[nH]2)C1` [Example 27] were, in that order, 130 min and 95 nM.
The like results for `O=C(OCc1ccc(Cl)cc1)N1CCO[C@H](c2nc3cccnc3[nH]2)C1` [Example 28] were, in that order, above 130 min and 42 nM.
The like results for `Cc1ccc(COC(=O)N2CCO[C@H](c3nc4cc(F)cnc4[nH]3)C2)cc1` [Example 31] were, in that order, 16 min and 132 nM.
